Article PMC6904362, “Omeprazole Treatment Enhances Nitrogen Use Efficiency Through Increased Nitrogen Uptake and Assimilation in Corn” (Frontiers in Plant Science, 2019)

Tested on: T1, purified NADH-Nitrate Reductase (NR) from Arabidopsis thaliana
T1 construct: gene NIA2; commercial Arabidopsis NR is probably recombinant NIA2
Assay: NR activity assay, nitrite detection (sulphanilamide/NED, […] nm), nonlinear regression
Format: biochemical
Conditions: 0.8 mM NADH, 50 mM Hepes/KOH pH 7.5, FAD, Na2MoO4; nitrate 0.08-1.5 mM; no omeprazole

- Km: 408 µM
Structure (SMILES): O=[N+]([O-])O [NO3 ^-, nitrate]
